EC50 and CC50 data for four molecules are collected here from ChEMBL document CHEMBL1150370, “Pestaloficiols A-E, bioactive cyclopropane derivatives from the plant endophytic fungus Pestalotiopsis fici” (Bioorg Med Chem, 2008).

For series [1], the system named is Human immunodeficiency virus 1. Nature of the series: Antiviral activity against HIV1 in human C8116 cells assessed as reduction of p24 protein level after 4 days by ELISA. It is filed as functional, organism-based. The note with it: Human immunodeficiency virus 1, C8116, 96 h.
A short description of series [2]: Cytotoxicity against human C8116 cells after 4 days by MTT assay. It is filed as cell-based.

pEC50: −log10 of the molar value. Structures can show the parent of a compound that is named as a salt.

Regarding `CC1(C)CC(=O)C2=C(O1)[C@@]13C[C@@H]1C(C)(C)O[C@H]3[C@@H](O)C2` [PESTALOFICIOL A], the negative-log EC50 (pEC50) in series [1] is 4.59. In series [2], the CC50 at 96 h is above 200 µM.

Take `CC1(C)CC(=O)C2=C(O1)[C@@]1(C[C@H]1C(C)(C)O)[C@@H](O)[C@@H](O)C2` [PESTALOFICIOL D]: the pEC50 in series [1] is 4.59. In series [2], this molecule returned a CC50 at 96 h above 200 µM.

With `CC1(C)CC(=O)C2=C(O1)[C@]1(C[C@@H]1C(C)(C)O)[C@@H](O)[C@@H](O)C2` [PESTALOFICIOL B], the pEC50 in series [1] was 4.59. This molecule also showed a CC50 at 96 h in series [2] above 200 µM.

For `CC(C)(C)NC(=O)[C@@H]1CN(Cc2cccnc2)CCN1C[C@@H](O)C[C@@H](Cc1ccccc1)C(=O)N[C@H]1c2ccccc2C[C@H]1O` [INDINAVIR SULFATE], the pEC50 in series [1] was 8.06.
